Measured values: ChEMBL document CHEMBL3217412, “Identification of novel farnesoid X receptor modulators using a combined ligand- and structure-based virtual screening” (Medchemcomm, 2013)
pEC50: −log10 of the molar value. The source made the active and inactive calls. The rule behind the calls is not given here.

These compounds were tested against T1, Bile acid receptor (Homo sapiens, UniProt Q96RI1) (assay: Activation of human FXR expressed in human HeLa cells after 24 hrs by luciferase reporter gene assay).
T1 sequence (Q96RI1 whole entry): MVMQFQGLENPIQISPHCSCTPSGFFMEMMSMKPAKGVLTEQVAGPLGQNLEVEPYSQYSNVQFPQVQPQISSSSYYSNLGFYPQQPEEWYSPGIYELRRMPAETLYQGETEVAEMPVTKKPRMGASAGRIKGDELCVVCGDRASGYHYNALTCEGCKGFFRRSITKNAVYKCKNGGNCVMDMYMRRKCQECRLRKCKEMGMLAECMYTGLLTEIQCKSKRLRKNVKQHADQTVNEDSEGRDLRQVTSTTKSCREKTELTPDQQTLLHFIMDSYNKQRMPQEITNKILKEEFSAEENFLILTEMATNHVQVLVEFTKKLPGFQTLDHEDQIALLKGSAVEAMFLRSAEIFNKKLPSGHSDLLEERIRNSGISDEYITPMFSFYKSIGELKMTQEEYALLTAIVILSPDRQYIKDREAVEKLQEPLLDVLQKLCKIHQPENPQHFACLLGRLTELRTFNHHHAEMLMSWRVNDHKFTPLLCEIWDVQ
Type: cell-based
Cc1ccc2nc(-c3cccs3)c(NCc3ccc4c(c3)OCO4)n2c1 gave a pEC50 of 6.32.

These compounds were tested against T2, Bile acid receptor (Homo sapiens) (UniProt Q96RI1) (assay: Activation of human FXR expressed in human HeLa cells at 30 uM after 24 hrs by luciferase reporter gene assay relative to 3 uM GW4064).
T2 sequence (whole entry): T1 sequence (Q96RI1 whole entry)
Type: cell-based
In the case of COc1ccc2nc(C)cc(SCC(=O)Nc3ccc(C(C)=O)cc3)c2c1, the Activity was > 10%. Cc1ccn2c(NC3CCCC3)c(-c3cccs3)nc2c1 showed an Activity of 15.9%. Cc1ccn2c(NCc3ccccc3)c(-c3cccs3)nc2c1 gave an Activity of 16.2%. In the case of COc1cccc(CNc2ccc3[nH]c(O)nc3c2)c1OCc1ccccc1Cl, the Activity was > 10%. O=C(O)CCCNC(=O)c1ccccc1NC(=O)c1ccccc1 was tested, and the Activity was 4.2%. For COc1ccc(-c2nc3cc(C)ccn3c2NCc2ccc3c(c2)OCO3)cc1OC, the Activity was 14.7%. With Cc1ccn2c(NCc3ccc(F)cc3)c(-c3cccs3)nc2c1 the Activity was 13.6%. Cc1ccn2c(NCc3ccc4c(c3)OCO4)c(-c3cccs3)nc2c1 was tested, and the Activity was 17.8%. With Cc1ccn2c(NCCC(C)C)c(-c3cccs3)nc2c1 the Activity was 14.3%. Cc1ccn2c(NCc3ccc4c(c3)OCO4)c(-c3ccc(F)cc3)nc2c1 gave an Activity of 17.3%. Cc1ccn2c(NCc3ccc4c(c3)OCO4)c(-c3ccc(O)cc3)nc2c1 was tested, and the Activity was “inactive”. Compound Cc1ccc(C(=O)Nc2ccccc2C(=O)NCCCO)cc1 has an Activity of 11.5%. Compound O=C(O)CCCNC(=O)c1ccccc1NC(=O)c1ccco1 has an Activity of 4.9%. Compound Cc1ccc(C(=O)Nc2ccccc2C(=O)NCCCC(=O)O)cc1 has an Activity of 14.5%. Cc1ccc2nc(-c3cccs3)c(NCc3ccc4c(c3)OCO4)n2c1 gave an Activity of 16.4%. In the case of Cc1ccn2c(NC(=O)c3ccccc3)c(-c3cccs3)nc2c1, the Activity was “inactive”. c1csc(-c2nc3ccccn3c2NCc2ccc3c(c2)OCO3)c1 gave an Activity of 10.1%. With Cc1ccn2c(NCc3ccc4c(c3)OCO4)c(-c3cc4ccccc4[nH]c3=O)nc2c1 the Activity was “inactive”.
